Laboratory results from patent publication US6596694B2, “Caloporoside derivatives, methods of their preparation and use” (Aventis Pharma Deutschland GmbH, priority 2001, dated 2003).

Molecular target: cyclin D1/CDK4 (Homo sapiens, UniProt P11802)
Experiment: Bioassay for CDK-4 inhibitors (phosphorylation of biotinylated peptide substrate, 33P-γ-ATP, flash plates)
Format: biochemical
Conditions: 2 μM ATP, 2 hours at 37° C., 10 concentrations; read-out: IC50 (concentration which deactivates 50% of CDK-4)
Method: In order to detect the inhibitors of cyclin-dependent kinases (CDKs), use is made of a test in which the phosphorylation rate by the cyclin-dependent kinases of a specific peptide substrate is measured. The cyclin-dependent kinases are activated when the kinase binds to its respective cyclin. A [γ-P]-phosphate is transferred from [γ-P]-ATP to the peptide substrate by the activated CDK. The test is carried out in 96-well microtiter plates. The radioactivity of the [γ-P]-phosphate on the substrate is measured.
IC50 values for the caloporoside derivatives are shown in Table 1; this is the concentration which deactivates 50% of CDK-4.
For the determination of the IC50 value, stock solutions of the caloporoside derivatives according to the invention were prepared in a concentration of 10 mM. […] flash plates were coated with 50 μl (50 μg/well) of biotinylated peptide substrate at room temperature, incubated for 2 hours, and subsequently washed 3× with PBS buffer. For the reaction, 30 μl of a buffer-diluted solution of the caloporoside derivatives and 20 μl of a pre-mixed ATP/cyclin D1/CDK4 solution (final concentration: 1 μCl of 33P-γ-ATP, 2 μM of ATP and 1 μg of enzyme mixture) were pipetted onto the plates. After a reaction time of 2 hours at 37° C., the plates were washed 3× with 80 μl of 3% phosphoric acid. Radioactivity was subsequently measured for 30 seconds in a MicroBeta counter. The percentage inhibition was determined with the aid of mathematical equations. For the determination of IC50 values, 10 different concentrations of the compounds according to the invention in a freshly diluted DMSO solution were tested.

Chain of cyclin D1/CDK4 (P11802 whole entry, species assumed): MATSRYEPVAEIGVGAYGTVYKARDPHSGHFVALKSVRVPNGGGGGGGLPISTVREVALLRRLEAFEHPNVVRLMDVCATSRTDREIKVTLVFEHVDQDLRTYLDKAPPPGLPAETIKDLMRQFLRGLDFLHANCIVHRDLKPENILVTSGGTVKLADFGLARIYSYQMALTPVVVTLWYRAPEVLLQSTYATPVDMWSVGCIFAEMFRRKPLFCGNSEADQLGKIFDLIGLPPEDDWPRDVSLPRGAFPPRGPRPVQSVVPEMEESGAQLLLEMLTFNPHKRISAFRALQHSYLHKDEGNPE
Chain of cyclin D1/CDK4 (P24385 whole entry partner, species assumed): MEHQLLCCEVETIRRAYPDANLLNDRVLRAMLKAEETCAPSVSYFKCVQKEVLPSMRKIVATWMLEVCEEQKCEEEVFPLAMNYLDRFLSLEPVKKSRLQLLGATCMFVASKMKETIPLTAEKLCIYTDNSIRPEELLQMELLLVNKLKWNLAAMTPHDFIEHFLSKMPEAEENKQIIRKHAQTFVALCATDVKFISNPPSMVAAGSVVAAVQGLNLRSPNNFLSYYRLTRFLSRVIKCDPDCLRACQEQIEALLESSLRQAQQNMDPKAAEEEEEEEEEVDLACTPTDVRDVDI

Compound | IC50 [µM]
CC(=O)OC1C(OC(COC(=O)CC(=O)O)C(O)C(O)C(O)C(=O)OC(C)CCCCCCCCCCCCCCCc2cccc(O)c2C(=O)O)OC(CO)C(O)C1O (centres unmarked) [Caloporoside D] | 1.8
CC(=O)OC1C(OC(CO)C(O)C(O)C(O)C(=O)OC(C)CCCCCCCCCCCCCCCc2cccc(O)c2C(=O)O)OC(CO)C(O)C1O (centres unmarked) [Caloporoside F] | 1.5
CC(=O)Oc1cccc(CCCCCCCCCCCCCCCC(C)OC(=O)C(O)C(O)C(O)C(CO)OC2OC(CO)C(O)C(O)C2O)c1C(=O)O (centres unmarked) [Caloporoside B] | 1.5
CC(=O)Oc1cccc(CCCCCCCCCCCCCCCC(C)OC(=O)C(O)C(O)C(O)C(COC(=O)CC(=O)O)OC2OC(CO)C(O)C(O)C2OC(C)=O)c1C(=O)O (centres unmarked) [Caloporoside C] | 3.1
CC(=O)OC1C(O)C(CO)OC(OC(COC(=O)CC(=O)O)C(O)C(O)C(O)C(=O)OC(C)CCCCCCCCCCCCCCCc2cccc(O)c2C(=O)O)C1O (centres unmarked) [Caloporoside E] | 1.8
